# Experimental data taken from US20140127158A1, “COMBINATION THERAPY FOR HEPATITIS C VIRUS INFECTION” (National Health Research Institute, priority 2012, published 2014).
# Where two headings read alike, the source gives them in different places.
# Columns and labels:
# [1] = tested on: genotype 2a HCV replicon with NS5A amino acid substitutions; experiment: Transient replicon assay, genotype 2a NS5A amino acid substitutions; format: cell-based, Hepatitis C virus; details: for EC50 / EC90: Hepatitis C virus
# [2] = tested on: HCV genotype 1b replicon (Con1); experiment: Inhibitory assay for HCV replicons (luciferase), genotype 1b Con1; format: cell-based, Hepatitis C virus
# Experimental: (2) Cell culture and HCV inhibitors. Huh-7.5 cells and their derivative HCV replicon cell lines were maintained in Dulbecco's modified Eagle's medium (DMEM, Gibco/BRL) that was supplemented with 100 U/mL penicillin-streptomycin (Gibco/BRL), 0.1 mM nonessential amino acid (NEAA, Gibco/BRL) and 10% fetal bovine serum (FBS) heat inactivated at 37° C. in 5% CO2. The HCV replicon cell lines were isolated from colonies as described in Lohman et al., Science 285:110-3 (1999). The culture medium for the replicon cells was additionally supplemented with 0.25 to 0.5 mg/mL of G418, unless specified otherwise. Compound DBPR110 and sofosbuvir were synthesized at the Institute of Biotechnology and Pharmaceutical Research at the National Health Research Institutes in Taiwan. Telaprevir (Lin et al., Antimicrob Agents Chemother, 50:1813-22 (2006)) was purchased from Acme Biosciences (Belmont, Calif.). The compounds were stored at −20° C. as 10 to 500 mM dimethyl sulfoxide (DMSO) stock solutions until the assay. IFN-α was purchased from Calbiochem (La Jolla, Calif.) and stored at −80° C.
# (3) Inhibitory assay for HCV replicons. Cells were seeded at 1×10^4 (high-throughput screening assay) or 1×10^5 (regular assay) cells/well in 96- or 12-well plate, respectively, and incubated for 4 h. The medium was then aspirated and replaced with 0.1 (96-well plate) or 1 (12-well plate) mL of complete medium containing a single compound or combinations of compounds in serial concentration(s). The plates with compounds were incubated for 72 h and then assayed for luciferase expression (Promega). The EC50 of each compound was determined independently and used to determine the range of concentrations used for the combination experiments. All data are presented as the means±standard deviations (SD) from three independent experiments. The selectivity index (SI) was calculated as the ratio of the CC50 to the EC50.
# [3] = tested on: Infectious HCV, Genotype 2a, JFH1; experiment: Small molecule inhibition of HCV infectivity (luciferase); format: cell-based, Hepatitis C virus
# Excerpt: (5) Small molecule inhibition of HCV infectivity. To quantify the inhibitory effect of DBPR110 on HCV particle formation, HCV replication in DBPR110-treated and untreated cells was quantified using a luciferase activity assay, as described previously. See, e.g., Wakita et al., Nat Med 11:791-6 (2005); and Zhang et al., Antimicrob Agents Chemother 52:666-74 (2008). In vitro-transcribed RNA derived from full-length HCV2a JFH1 infectious cDNA clone with the luciferase reporter gene was delivered to Huh-7.5 cells by electroporation. The cells were seeded at 1×10^5 cells per well in 12-well plates and incubated for 4 h. The medium was then aspirated and replaced with 1 mL of complete medium containing DBPR110 in serial concentration. The plates with compounds were incubated for 72 h and the medium were then used to infect Huh-7.5 cells. Huh-7.5 cells were seeded in 12-well plates (1×10^5 cells/well) in DMEM with 10% FBS for 24 h before infection. The HCV cell culture (HCVcc)-containing supernatant per well was added to the Huh-7.5 cells. After 72 h of incubation at 37° C., the total cell lysate was assayed for luciferase expression (Promega).
# Cytotoxicity assay (MTT) = format: cell-based; details: human, read-out: CC50
# Experimental: (4) Cytotoxicity assay. The sensitivity of the cell lines to inhibitors was examined using a 3-(4,5-Dimethylthiazol-2-yl)-2,5-diphenyltetrazolium bromide (MTT) assay. Briefly, Huh-7.5 cells were plated at a density of 1×10^5 cells per well in 12-well plates containing 1 mL of culture medium for 4 h. Serial dilutions of the compounds or DMSO (negative control) were added, and the plates were incubated for an additional 72 h. The MTT reagent was then added to each well, and the plates were incubated for 3 h at 37° C. in a humidified 5% CO2 atmosphere before reading at a wavelength of 563 nm using an ELISA plate reader. All data are presented as the means +/−SD from four independent experiments.
# [4] = tested on: HCV genotype 1b Con1 replicon cells; experiment: Isolation of resistant replicons, genotype 1b; format: cell-based, Hepatitis C virus
# Experimental: Selection of resistant replicon cells was performed by growing HCV genotype 1b Con1 and 2a JFH1 replicon cells in medium containing 0.2 or 200 nM and 60 nM or 1 μM of DBPR110, respectively. Medium containing the compound was added to monolayers of HCV1b-neo replicon cells at ˜25% confluence in the presence of 0.2 to 0.4 mg/mL of G418. Replicon cells maintained in the presence of dimethyl sulfoxide (DMSO) were used as a control. After 40 days, total RNA was isolated from both the control replicon cells and homogeneous cell lines containing compound using the TRIzol reagent (Invitrogen, Carlsbad, Calif.) according to the manufacturer's protocol. The RNA was amplified by reverse transcription-PCR (RT-PCR).
# To characterize the resistance profile of DBPR110, cell clones resistant to DBPR110 were obtained by culturing HCV genotype 1b replicon cells in the presence of G418 and increasing concentrations of DBPR110 ranging from 50- to 50,000-fold the EC50 value.
structure (smiles),measurement,setting,value
O=C(N[C@@H](C(=O)N1CCC[C@H]1c1ncc(-c2ccc(-c3ccc(-c4cnc([C@@H]5CCCN5C(=O)[C@H](NC(=O)C5CC5)c5ccccc5)s4)cc3)cc2)s1)c1ccccc1)C1CC1 [DBPR110],EC50,[1]; genotype 2a NS5A P58L,53 nM
same,EC90,[1]; genotype 2a NS5A P58L,89.3 nM
same,EC50,[1]; genotype 2a NS5A Parental,0.25 ± 0.032 nM
same,EC90,[1]; genotype 2a NS5A Parental,0.592 ± 0.07 nM
same,EC50,[1]; genotype 2a NS5A T24A,16.2 nM
same,EC90,[1]; genotype 2a NS5A T24A,63.5 nM
same,EC50,[1]; genotype 2a NS5A Y93H,760 nM
same,EC90,[1]; genotype 2a NS5A Y93H,> 5000 nM
same,EC50,[1]; genotype 2a NS5A Y93N,51.8 nM
same,EC90,[1]; genotype 2a NS5A Y93N,85.2 nM
same,Fold resistance (EC50),[1]; genotype 2a NS5A P58L,212 fold
same,Fold resistance (EC90),[1]; genotype 2a NS5A P58L,151 fold
same,Fold resistance (EC50),[1]; genotype 2a NS5A Parental,1 fold
same,Fold resistance (EC90),[1]; genotype 2a NS5A Parental,1 fold
same,Fold resistance (EC50),[1]; genotype 2a NS5A T24A,65 fold
same,Fold resistance (EC90),[1]; genotype 2a NS5A T24A,107 fold
same,Fold resistance (EC50),[1]; genotype 2a NS5A Y93H,"3,041 fold"
same,Fold resistance (EC90),[1]; genotype 2a NS5A Y93H,">8,446 fold"
same,Fold resistance (EC50),[1]; genotype 2a NS5A Y93N,207 fold
same,Fold resistance (EC90),[1]; genotype 2a NS5A Y93N,144 fold
same,EC50,"[2]; Hepatitis C virus, HCV-1b replicon cell lines, single agent, combination study system, read-out: EC50",0.0033 ± 0.0008 nM
same,EC50,"[2]; Hepatitis C virus, parental genotype 1b replicon cells, read-out: EC50",0.0039 nM
same,EC50,"[2]; Hepatitis C virus, Genotype 1b, Con1 replicon cell line, read-out: Luciferase activity assay EC50",0.0039 nM
same,EC90,"[2]; Hepatitis C virus, Genotype 1b, Con1 replicon cell line, read-out: Luciferase activity assay EC90",0.0082 ± 0.0018 nM
same,susceptibility of genotype 1b greater than that of genotype 2a replicon cells,[2]; genotype 1b vs genotype 2a replicon cells,74 fold
same,Selective index,"[3]; CC50/EC50, Infectious HCV, Genotype 2a, JFH1",">720,461"
same,EC50,"[3]; Hepatitis C virus, read-out: Luciferase activity assay EC50",0.0183 nM
same,EC90,"[3]; Hepatitis C virus, read-out: Luciferase activity assay EC90",0.258 ± 0.0502 nM
same,CC50 at 72 h,"Cytotoxicity assay (MTT); Genotype 2a, JFH1",> 50000 nM
same,CC50 at 72 h,"Cytotoxicity assay (MTT); HCV-1b replicon cell lines, single agent",> 50 nM
same,CC50 at 72 h,"Cytotoxicity assay (MTT); Huh-7.5 cells, Genotype 1b, Con1",> 50000 nM
same,CC50 at 72 h,"Cytotoxicity assay (MTT); Infectious HCV, Genotype 2a, JFH1",> 50000 nM
same,fold more resistant than parental cells,"[4]; DBPR110-resistant cells (DBPR110R), genotype 1b","greater than 14,000 fold"
same,EC50,[4]; Hepatitis C virus,> 55 nM
